From US7759373B2, “Large conductance calcium-activated K channel opener” (Mitsubishi Tanabe Pharma Corporation, priority 2001, dated 2010)
Counter-ions that a name gives are not always drawn.

tested on: isolated rabbit urinary bladder; assay: Relaxation effect on potassium-induced contraction of isolated rabbit urinary bladder; type: cell-based; conditions: Oryctolagus cuniculus; 50% relaxation concentration; high-K+ (30 mM) pre-contracted rabbit bladder strips; relaxation as percentage of the maximum produced by 0.1 mM papaverine; read-out: EC50 value range
In short: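 Mucosa-free longitudinal bladder strips from male NZW rabbits, held at 37 °C in Krebs solution gassed with 95% O2/5% CO2, were precontracted with 30 mM K+. Compounds were added cumulatively (10^−8–10^−4 M), with isometric relaxation expressed relative to 0.1 mM papaverine maximum. EC50 was derived and reported as rank ranges.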

EC50 [µM] | SMILES
1 to 3 | CN(C)c1ncc(-c2nc(CC(=O)O)c(-c3ccc(Cl)c(S)c3)o2)cn1 [Preparation Example 364]
0.5 to 1 | COc1ccc(-c2nc(CC(=O)O)c(-c3ccc(Cl)s3)s2)cc1 [Preparation Example 609]
≤ 0.5 | CSc1ccc(-c2nc(-c3ccc(Cl)s3)c(CC(=O)O)s2)cc1 [Preparation Example 590]
1 to 3 | O=C(O)Cc1nc(-c2ccc(F)cc2)oc1-c1ccc[nH]1 [Preparation Example 524]
0.5 to 1 | COc1ccc(-c2nc(CC(=O)O)c(-c3cccs3)o2)cc1F [Preparation Example 431]

tested on: rhythmic bladder contractions induced by substance P; assay: Inhibitory effect on the rhythmic bladder contractions induced by substance P in anesthetized rats; type: in vivo, rat; conditions: time during which frequency of rhythmic contraction was completely inhibited, 0.25 mg/kg of the compound, substance P infusion
In short: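 Urethane-anesthetized female Sprague-Dawley rats with rhythmic bladder contractions driven by i.v. substance P (0.33 μg/kg/min). Compound given i.v. in saline/0.5% Tween 80 once contractions stable 15 min; intravesical pressure monitored, duration of 100% inhibition ranked A ≥20, B ≥10, C <10 min.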

SMILES | 100% inhibition time range
CN(C)c1ncc(-c2nc(CC(=O)O)c(-c3ccc(Cl)c(S)c3)o2)cn1 [Preparation Example 364] | B (A≧20>B≧10>C (minute))
COc1ccc(-c2nc(CC(=O)O)c(-c3ccc(Cl)s3)s2)cc1 [Preparation Example 609] | B (A≧20>B≧10>C (minute))
CSc1ccc(-c2nc(-c3ccc(Cl)s3)c(CC(=O)O)s2)cc1 [Preparation Example 590] | B (A≧20>B≧10>C (minute))
O=C(O)Cc1nc(-c2ccc(F)cc2)oc1-c1ccc[nH]1 [Preparation Example 524] | B (A≧20>B≧10>C (minute))
COc1ccc(-c2nc(CC(=O)O)c(-c3cccs3)o2)cc1F [Preparation Example 431] | B (A≧20>B≧10>C (minute))

tested on: not given; assay: not given; conditions: not given

melting point | SMILES
> 300 °C | N#Cc1ccc(-c2ncc(-c3ccccc3)[nH]2)cc1 (as salt: HCl) [Preparation example 42]
214 to 216 °C | CCc1nc(-c2csc(Br)c2)[nH]c1-c1cccnc1 (as salt: HCl) [Preparation example 19]
185 to 188 °C | COCc1nc(-c2cccc(F)c2)[nH]c1-c1ccccc1 (as salt: HCl) [Preparation example 123]
192 to 195 °C | Fc1ccc(-c2ncc(-c3cccnc3)[nH]2)cc1 (as salt: HCl) [Preparation example 22]
262 to 264 °C | CCCc1nc(-c2ccc(F)cc2)[nH]c1-c1cc(Cl)ccc1O (as salt: HCl) [Preparation example 92]
250 to 255 °C | Fc1cccc(-c2ncc(-c3ccccc3)[nH]2)c1 (as salt: HCl) [Preparation example 41]
117 to 117.5 °C | CCOC(=O)Cc1nc(-c2ccc(OC)c(F)c2)oc1-c1cccs1 [Preparation Example 382]
198 to 199 °C | COc1ccc(-c2nc(CC(=O)O)c(-c3ccsc3)o2)cc1 [Preparation Example 200]
245 to 247 °C | O=CNc1[nH]c(-c2ccc(F)cc2)nc1-c1ccccc1 [Preparation example 105, 5-formylamino-2-(4-fluorophenyl)-4-phenylimidazole]
266 to 269 °C | Cc1ccc(-c2nc(CO)c(-c3cccnc3)[nH]2)cn1 (as salt: HCl) [Preparation example 114]
232 to 234 °C | OCc1nc(-c2cccc(F)c2)[nH]c1-c1ccccc1 [Preparation example 115]
109 to 111 °C | CCOC(=O)Cc1nc(-c2ccc(Cl)cc2)oc1-c1ccco1 [Preparation Example 191]
218 to 220 °C | CSCc1nc(-c2cccc(F)c2)[nH]c1-c1ccccc1 (as salt: HCl) [Preparation example 131]
155 to 156.5 °C | CCOC(=O)Cc1nc(-c2cc3ccccc3s2)oc1-c1ccsc1 [Preparation Example 408]
189 to 190 °C | CCCc1nc(-c2ccc3ccccc3c2)[nH]c1-c1ccccc1 (as salt: HCl) [Preparation example 32]
260 to 262 °C | CCc1nc(-c2ccc(F)cc2)[nH]c1-c1ccc(C)nc1 (as salt: HCl) [Preparation example 47]
110 to 111 °C | OCCc1nc(-c2ccc(F)cc2)oc1-c1ccsc1 [Preparation Example 619]
325 to 328 °C | N#Cc1ccc(-c2ncc(-c3cccnc3)[nH]2)cc1 (as salt: HCl) [Preparation example 23]
145 to 146 °C | CCOC(=O)Cc1nc(-c2cnc3occc3c2)oc1-c1ccc(Cl)s1 [Preparation Example 429]

melting point | SMILES
204 to 207 °C | COCc1nc(-c2ccc(F)cc2)[nH]c1-c1ccccc1 (as salt: HCl) [Preparation example 121]
207 to 209 °C | O=C(O)Cc1nc(-c2ccc(F)cc2)oc1-c1ccsc1 [Preparation Example 618]
77 to 78 °C | CCOC(=O)Cc1nc(-c2ccc(SC)cc2)oc1-c1ccsc1 [Preparation Example 409]
175 to 180 °C | CCCc1nc(-c2ccc(NC)cc2)[nH]c1-c1cccs1 (as salt: HCl) [Preparation example 3]
186 to 189 °C | CCCc1nc(-c2ccc(F)cc2)[nH]c1-c1ccccc1C(N)=O (as salt: HCl) [Preparation example 101]
179 to 180 °C | OCCc1[nH]c(-c2ccc(Cl)s2)nc1-c1cccnc1 (as salt: hydrochloride) [Preparation example 146, 2-(5-chloro-thiophen-2-yl)-5-hydroxyethyl-4-(3-pyridyl)imidazole]
234 to 238 °C (dec.) | Cl.O=C(O)Cc1nc(-c2ccc(Cl)s2)oc1-c1cccnc1
194 to 196 °C | CCCc1nc(-c2csc(Cl)c2)[nH]c1-c1ccccc1 (as salt: HCl) [Preparation example 34]
275 to 280 °C | CCCc1nc(-c2ccncc2)[nH]c1-c1cccs1 (as salt: HCl) [Preparation example 6]
225 to 228 °C | OCc1nc(-c2ccc(F)cc2)[nH]c1-c1cccnc1 [Preparation example 113]
241 to 243 °C | CCc1nc(-c2ccc(F)cc2)[nH]c1-c1cnccn1 (as salt: HCl) [Preparation example 49]
215 to 218 °C | CCc1nc(-c2ccc(F)cc2)[nH]c1-c1nccs1 (as salt: HCl) [Preparation example 51]
209 to 211 °C | CSCc1nc(-c2ccc(C#N)cc2)[nH]c1-c1cccnc1 [Preparation example 134]
258 to 260 °C | CCCc1nc(-c2ccc(C#N)cc2)[nH]c1-c1ccccc1 (as salt: HCl) [Preparation example 31]
256 to 258 °C | O=CCNc1[nH]c(-c2ccc(F)cc2)nc1-c1ccccc1 [Preparation example 106, 5-formylmethylamino-2-(4-fluorophenyl)-4-phenyl-imidazole]
220 to 222 °C | CCCc1nc(-c2ccc[nH]2)[nH]c1-c1ccccc1 (as salt: HCl) [Preparation example 35]
125 to 127 °C | CCOC(=O)Cc1nc(-c2ccc(C)cc2)oc1-c1cccs1 [Preparation Example 196]
285 to 288 °C | CCc1nc(-c2ccc(C#N)cc2)[nH]c1-c1ccccc1 (as salt: HCl) [Preparation example 27]
233 to 235 °C | CCCc1nc(-c2ccc(F)cc2)[nH]c1-c1ccc(F)cc1 (as salt: HCl) [Preparation example 87]

melting point | SMILES
213 to 214 °C | Clc1ccc(-c2nc(Cc3nnn[nH]3)c(-c3ccccc3)s2)cc1 [Preparation Example 632, 5-[2-(4-chlorophenyl)-5-phenyl-thiazol-4-ylmethyl]tetrazole]
120 to 122 °C | CCCc1nc(-c2ccc(F)cc2)[nH]c1-c1cccc(OC)c1 (as salt: HCl) [Preparation example 96]
202 to 204 °C | CCCc1nc(-c2cccc(Cl)c2)[nH]c1-c1ccccc1 (as salt: HCl) [Preparation example 29]
170 to 172 °C | CCCc1nc(-c2ccc(N(C)C)cc2)[nH]c1-c1cccs1 (as salt: HCl) [Preparation example 2]
240 to 243 °C | OCc1nc(-c2ccc(F)cc2)[nH]c1-c1ccccc1 [Preparation example 117]
80 to 81 °C | CCOC(=O)Cc1nc(-c2cccc(C)c2)oc1-c1cccs1 [Preparation Example 427]
200 to 202 °C (dec.) | NC(=O)Cc1nc(-c2ccc(F)cc2)[nH]c1-c1ccsc1 [Preparation example 44]
269 to 273 °C | Cc1ccc(-c2ncc(-c3cccnc3)[nH]2)cn1 (as salt: HCl) [Preparation example 26]
254 to 256 °C | CCc1nc(-c2ccc(F)cc2)[nH]c1-c1cncs1 (as salt: HCl) [Preparation example 86]
188 to 190 °C | CCCc1nc(-c2cc(Cl)cs2)[nH]c1-c1ccccc1 (as salt: HCl) [Preparation example 40]
270 to 273 °C (dec.) | CCc1[nH]c(-c2ccc(C)nc2)nc1-c1cccnc1.Cl.Cl.Cl
253 to 255 °C | CNc1[nH]c(-c2ccc(F)cc2)nc1-c1ccccc1 (as salt: hydrochloride) [Preparation example 107, 5-methylamino-2-(4-fluorophenyl)-4-phenylimidazole]
105 to 107 °C | CCOC(=O)Cc1nc(-c2ccc(OC)cc2)oc1-c1cccs1 [Preparation Example 154]
247 to 251 °C | CCc1nc(-c2ccc(C)nc2)[nH]c1-c1cncs1 (as salt: HCl) [Preparation example 83]
168.5 to 169.5 °C | CCOC(=O)Cc1nc(-c2ccc3ccccc3n2)oc1-c1ccsc1 [Preparation Example 428]
187 to 189 °C | CCOC(=O)c1cc(-c2nc(CC)c(-c3cccnc3)[nH]2)cs1 [Preparation example 11]
203 to 204 °C | C[S+]([O-])Cc1[nH]c(-c2ccc(F)cc2)nc1-c1ccccc1 (stereo not drawn) (as salt: HCl) [Preparation example 639]
214 to 215 °C | O=C(O)Cc1nc(-c2ccc(Cl)cc2)oc1-c1cccs1 [Preparation Example 192]
